{
  "source": "patent US20200237759A1",
  "about": "“DOSAGE REGIME AND METHOD FOR TREATING PULMONARY ARTERIAL HYPERTENSION” (Altavant Sciences GmbH, priority 2019, published 2020)",
  "experiment": "Part 2 MAD plasma pharmacokinetics, BID oral KAR5585 for 14 days",
  "settings": "for tmax: Median",
  "key": {"[1]": {"settings": "200 mg BID fed, Cohort 3, Day 1 PM, Geo. Mean"}, "[2]": {"settings": "200 mg BID fed, Cohort 3, Day 7 AM, Geo. Mean"}, "[3]": {"settings": "200 mg BID fed, Cohort 3, Day 7 AM, Mean"}, "[4]": {"settings": "200 mg BID fed, Cohort 3, Day 7 PM, Geo. Mean"}, "[5]": {"settings": "200 mg BID fed, Cohort 3, Day 7 PM, Mean"}, "[6]": {"settings": "200 mg BID fed, Cohort 3, Day 14 AM, Geo. Mean"}, "[7]": {"settings": "200 mg BID fed, Cohort 3, Day 14 AM, Mean"}, "[8]": {"settings": "400 mg BID fed, Cohort 4, Day 1 AM, Geo. Mean"}, "[9]": {"settings": "400 mg BID fed, Cohort 4, Day 1 PM, Geo. Mean"}, "[10]": {"settings": "400 mg BID fed, Cohort 4, Day 7 AM, Geo. Mean"}, "[11]": {"settings": "400 mg BID fed, Cohort 4, Day 7 PM, Geo. Mean"}, "[12]": {"settings": "400 mg BID fed, Cohort 4, Day 7 PM, Mean"}, "[13]": {"settings": "400 mg BID fed, Cohort 4, Day 14 AM, Geo. Mean"}, "[14]": {"settings": "400 mg BID fed, Cohort 4, Day 14 AM, Mean"}},
  "procedure": "Food effect was to be evaluated in Part 1, Period 2.\nPart 2 (MAD): BID doses (separated by approximately 12 hours on Days 1 to 13) and a single AM dose on Day 14. One or more of the MAD Cohort could have been dosed once daily (QD).\nPharmacokinetic data were to be summarized descriptively.",
  "data": [
    {"smiles": "Nc1nc(O[C@H](c2ccc(Cl)cc2-c2ccccc2)C(F)(F)F)cc(N2CCC3(CC2)CN[C@H](C(=O)O)C3)n1", "note": "[KAR5417, (S)-8-(2-amino-6-((R)-1-(5-chloro-[1,1′-biphenyl]-2-yl)-2,2,2-trifluoroeth-oxy)pyrimidin-4-yl)-2,8-diazaspiro[4.5]decane-3-carboxylic acid]", "values": [
      {"measurement": "Cmax", "setting": "[1]", "result": 307, "unit": "ng/mL"},
      {"measurement": "t1/2", "setting": "[1]", "result": 5.95, "unit": "h"},
      {"measurement": "AUC0-12", "setting": "200 mg BID fed, Cohort 3, Day 1 PM, Mean", "result": 2000, "unit": "ng·h/mL"},
      {"measurement": "tmax", "setting": "200 mg BID fed, Cohort 3, Day 1 PM", "result": 4.0, "unit": "h"},
      {"measurement": "RCmax", "setting": "200 mg BID fed, Cohort 3, Day 7 AM, Day 7/Day 1 accumulation ratio, Mean", "result": 1.00},
      {"measurement": "AUC0-∞", "setting": "[2]", "result": 2610, "unit": "ng·h/mL"},
      {"measurement": "Cmax", "setting": "[2]", "result": 332, "unit": "ng/mL"},
      {"measurement": "t1/2", "setting": "[2]", "result": 4.57, "unit": "h"},
      {"measurement": "AUC0-∞", "setting": "[3]", "result": 2800, "unit": "ng·h/mL"},
      {"measurement": "Cmax", "setting": "[3]", "result": 359, "unit": "ng/mL"},
      {"measurement": "t1/2", "setting": "[3]", "result": 4.61, "unit": "h"},
      {"measurement": "tmax", "setting": "200 mg BID fed, Cohort 3, Day 7 AM", "result": 4.0, "unit": "h"},
      {"measurement": "AUC0-12", "setting": "[4]", "result": 1490, "unit": "ng·h/mL"},
      {"measurement": "AUC0-24", "setting": "[4]", "result": 3620, "unit": "ng·h/mL"},
      {"measurement": "AUC0-∞", "setting": "[4]", "result": 2270, "unit": "ng·h/mL"},
      {"measurement": "Cmax", "setting": "[4]", "result": 212, "unit": "ng/mL"},
      {"measurement": "t1/2", "setting": "[4]", "result": 6.48, "unit": "h"},
      {"measurement": "AUC0-12", "setting": "[5]", "result": 1540, "unit": "ng·h/mL"},
      {"measurement": "AUC0-24", "setting": "[5]", "result": 3810, "unit": "ng·h/mL"},
      {"measurement": "AUC0-∞", "setting": "[5]", "result": 2280, "unit": "ng·h/mL"},
      {"measurement": "Cmax", "setting": "[5]", "result": 222, "unit": "ng/mL"},
      {"measurement": "tmax", "setting": "200 mg BID fed, Cohort 3, Day 7 PM", "result": 8.0, "unit": "h"},
      {"measurement": "AUC0-12", "setting": "[6]", "result": 1670, "unit": "ng·h/mL"},
      {"measurement": "AUC0-24", "setting": "[6]", "result": 2200, "unit": "ng·h/mL"},
      {"measurement": "t1/2", "setting": "[6]", "result": 24.1, "unit": "h"},
      {"measurement": "AUC0-12", "setting": "[7]", "result": 1820, "unit": "ng·h/mL"},
      {"measurement": "AUC0-24", "setting": "[7]", "result": 2380, "unit": "ng·h/mL"},
      {"measurement": "Cmax", "setting": "[7]", "result": 319, "unit": "ng/mL"},
      {"measurement": "t1/2", "setting": "[7]", "result": 25.0, "unit": "h"},
      {"measurement": "tmax", "setting": "200 mg BID fed, Cohort 3, Day 14 AM", "result": 3.0, "unit": "h"},
      {"measurement": "AUC0-∞", "setting": "[8]", "result": 3400, "unit": "ng·h/mL"},
      {"measurement": "t1/2", "setting": "[8]", "result": 3.71, "unit": "h"},
      {"measurement": "AUC0-∞", "setting": "400 mg BID fed, Cohort 4, Day 1 AM, Mean", "result": 3780, "unit": "ng·h/mL"},
      {"measurement": "tmax", "setting": "400 mg BID fed, Cohort 4, Day 1 AM", "result": 3.0, "unit": "h"},
      {"measurement": "AUC0-∞", "setting": "[9]", "result": 6860, "unit": "ng·h/mL"},
      {"measurement": "t1/2", "setting": "[9]", "result": 5.3, "unit": "h"},
      {"measurement": "tmax", "setting": "400 mg BID fed, Cohort 4, Day 1 PM", "result": 4.0, "unit": "h"},
      {"measurement": "RCmax", "setting": "400 mg BID fed, Cohort 4, Day 7 AM, Day 7/Day 1 accumulation ratio, Mean", "result": 2.00},
      {"measurement": "AUC0-∞", "setting": "[10]", "result": 7480, "unit": "ng·h/mL"},
      {"measurement": "Cmax", "setting": "[10]", "result": 960, "unit": "ng/mL"},
      {"measurement": "t1/2", "setting": "[10]", "result": 3.89, "unit": "h"},
      {"measurement": "t1/2", "setting": "400 mg BID fed, Cohort 4, Day 7 AM, Mean", "result": 3.94, "unit": "h"},
      {"measurement": "tmax", "setting": "400 mg BID fed, Cohort 4, Day 7 AM", "result": 4.0, "unit": "h"},
      {"measurement": "RAUC0-12", "setting": "400 mg BID fed, Cohort 4, Day 7 PM, Day 7/Day 1 accumulation ratio, Geo. Mean", "result": 1.50},
      {"measurement": "AUC0-12", "setting": "[11]", "result": 4360, "unit": "ng·h/mL"},
      {"measurement": "AUC0-∞", "setting": "[11]", "result": 6450, "unit": "ng·h/mL"},
      {"measurement": "Cmax", "setting": "[11]", "result": 574, "unit": "ng/mL"},
      {"measurement": "t1/2", "setting": "[11]", "result": 5.08, "unit": "h"},
      {"measurement": "AUC0-12", "setting": "[12]", "result": 4610, "unit": "ng·h/mL"},
      {"measurement": "AUC0-∞", "setting": "[12]", "result": 6520, "unit": "ng·h/mL"},
      {"measurement": "Cmax", "setting": "[12]", "result": 608, "unit": "ng/mL"},
      {"measurement": "t1/2", "setting": "[12]", "result": 5.10, "unit": "h"},
      {"measurement": "tmax", "setting": "400 mg BID fed, Cohort 4, Day 7 PM", "result": 6.0, "unit": "h"},
      {"measurement": "AUC0-12", "setting": "[13]", "result": 4160, "unit": "ng·h/mL"},
      {"measurement": "AUC0-24", "setting": "[13]", "result": 5410, "unit": "ng·h/mL"},
      {"measurement": "AUC0-∞", "setting": "[13]", "result": 8120, "unit": "ng·h/mL"},
      {"measurement": "Cmax", "setting": "[13]", "result": 717, "unit": "ng/mL"},
      {"measurement": "t1/2", "setting": "[13]", "result": 30.4, "unit": "h"},
      {"measurement": "AUC0-12", "setting": "[14]", "result": 4350, "unit": "ng·h/mL"},
      {"measurement": "Cmax", "setting": "[14]", "result": 749, "unit": "ng/mL"},
      {"measurement": "t1/2", "setting": "[14]", "result": 30.6, "unit": "h"},
      {"measurement": "tmax", "setting": "400 mg BID fed, Cohort 4, Day 14 AM", "result": 3.0, "unit": "h"},
      {"measurement": "tmax Day 7 evening dose", "setting": "400 mg KAR5585 BID, fed", "result": 6, "unit": "h"},
      {"measurement": "study day by which steady-state plasma levels were achieved", "setting": "BID oral KAR5585 for 14 days", "result": "≤ 7", "unit": "days"}
    ]}
  ]
}
